Results published in patent US11858941B2, “Heterocyclic and heteroaryl compounds for treating Huntington's disease” (PTC THERAPEUTICS, INC., priority 2018, dated 2024).

Test system: Endogenous Huntingtin Protein
Test: Endogenous Huntingtin Protein Assay (Meso Scale Discovery ELISA-based electrochemiluminescence)
Assay type: cell-based
Conditions: MSD plates coated with MW1 (expanded polyglutamine) or MAB2166 capture antibody; lysates
Description: Compounds of Formula (I) were tested using the Meso Scale Discovery (MSD) Assay provided in International Application No. PCT/US2016/066042, filed on Dec. 11, 2016 and claiming priority to United States Provisional Application U.S. 62/265,652 filed on Dec. 10, 2015, the entire contents of which are incorporated herein by reference.
The Endogenous Huntingtin Protein assay used in Example 1 was developed using the ELISA-based MSD electrochemiluminescence assay platform.
Endogenous Huntingtin Protein Assay
Meso Scale Discovery (MSD) 96-well or 384-well plates were coated overnight at 4° C. with MW1 (expanded polyglutamine) or MAB2166 monoclonal antibody (for capture) at a concentration of 1 μg/mL in PBS (30 μL per well). Plates were then washed three times with 300 μL wash buffer (0.05% Tween-20 in PBS) and blocked (100 μL blocking buffer; 5% BSA in PBS) for 4-5 hours at room temperature with rotational shaking and then washed three times with wash buffer.
Samples (25 μL) were transferred to the antibody-coated MSD plate and incubated overnight at 4° C. After removal of the lysates, the plate was washed three times with wash buffer, and 25 μL of #5656S (Cell signaling; rabbit monoclonal) secondary antibody (diluted to 0.25 μg/mL in 0.05% Tween-20 in blocking buffer) was added to each well and incubated with shaking for 1 Hour at room temperature. Following incubation with the secondary antibody, the wells were rinsed with wash buffer after which 25 μL of goat anti-rabbit SULFO TAG secondary detection antibody (required aspect of the MSD system) (diluted to 0.25 μg/mL in 0.05% Tween-20 in blocking buffer) was added to each well and incubated with shaking for 1 hour at room temperature. After rinsing three times with wash buffer, 150 μL of read buffer T with surfactant (MSD) were added to each empty well, and the plate was imaged on a SI 6000 imager (MSD) according to manufacturers' instructions provided for 96- or 384-well plates.

Compared with `CC1(C)CC(n2nnc3cc(-c4ccc(-n5cnnc5)cc4O)nnc32)CC(C)(C)N1` [Cpd 64, 2-[3-(2,2,6,6-tetramethylpiperidin-4-yl)-3H-[1,2,3]triazolo[4,5-c]pyridazin-6-yl]-5-(4H-1,2,4-triazol-4-yl)phenol], `Cc1ccnn1-c1ccc(-c2cc3nnn(C4CC(C)(C)NC(C)(C)C4)c3nn2)c(O)c1` [Cpd 155, 5-(5-methyl-1H-pyrazol-1-yl)-2-[3-(2,2,6,6-tetramethylpiperidin-4-yl)-3H-[1,2,3]triazolo[4,5-c]pyridazin-6-yl]phenol] is higher in IC50: 1 to 3 µM for the first, 3 to 9 µM for the second. The first is the more potent here.

`Cc1nc2cc(-c3cc4nnn(C5CC(C)(C)NC(C)(C)C5)c4nn3)c(O)cc2[nH]1` [Cpd 97, 2-methyl-5-[3-(2,2,6,6-tetramethylpiperidin-4-yl)-3H-[1,2,3]triazolo[4,5-c]pyridazin-6-yl]-1H-benzimidazol-6-ol] and `CC1(C)CC(n2nnc3cc(-c4cc(F)c(-c5cn[nH]c5)cc4O)nnc32)CC(C)(C)N1` [Cpd 35, 4-fluoro-5-(1H-pyrazol-4-yl)-2-[3-(2,2,6,6-tetramethylpiperidin-4-yl)-3H-[1,2,3]triazolo[4,5-c]pyridazin-6-yl]phenol] cannot be ordered by IC50: at most 0.1 µM for the first, at most 0.1 µM for the second.

`CC1(C)CC(n2nnc3cc(-c4ccc(-c5ccc(O)cc5)cc4O)nnc32)CC(C)(C)N1` [Cpd 38, 4-[3-(2,2,6,6-tetramethylpiperidin-4-yl)-3H-[1,2,3]triazolo[4,5-c]pyridazin-6-yl]biphenyl-3,4′-diol] and `Cn1cc(-c2ccc(-c3cc4nnn(C5CC(C)(C)NC(C)(C)C5)c4nn3)c(O)c2)cn1` [Cpd 39, 5-(1-methyl-1H-pyrazol-4-yl)-2-[3-(2,2,6,6-tetramethylpiperidin-4-yl)-3H-[1,2,3]triazolo[4,5-c]pyridazin-6-yl]phenol] cannot be ordered by IC50: at most 0.1 µM for the first, at most 0.1 µM for the second.

`Oc1cc(-c2cn[nH]c2)ccc1-c1cc2scc(C3=CC4COCC(C3)N4)c2nn1` (stereo not shown) [Cpd 25, 2-[7-(3-oxa-9-azabicyclo[3.3.1]non-6-en-7-yl)thieno[3,2-c]pyridazin-3-yl]-5-(1H-pyrazol-4-yl)phenol] and `Oc1cc(-c2cn[nH]c2)ccc1-c1cc2[nH]cc(C3CC4CCC(C3)N4)c2nn1` (stereo not shown) [Cpd 29, 2-[7-(8-azabicyclo[3.2.1]oct-3-yl)-5H-pyrrolo[3,2-c]pyridazin-3-yl]-5-(1H-pyrazol-4-yl)phenol] cannot be ordered by IC50: at most 0.1 µM for the first, at most 0.1 µM for the second.

First: CN1C(C)(C)CC(n2nnc3cc(-c4ccc(-c5cn[nH]c5)cc4O)nnc32)CC1(C)C [Cpd 52, 2-[3-(1,2,2,6,6-pentamethylpiperidin-4-yl)-3H-[1,2,3]triazolo[4,5-c]pyridazin-6-yl]-5-(1H-pyrazol-4-yl)phenol]
Second: CC1(C)CC(n2nnc3cc(-c4ccc(-c5ccc6[nH]nnc6n5)cc4O)nnc32)CC(C)(C)N1 [Cpd 147, 2-[3-(2,2,6,6-tetramethylpiperidin-4-yl)-3H-[1,2,3]triazolo[4,5-c]pyridazin-6-yl]-5-(1H-[1,2,3]triazolo[4,5-b]pyridin-5-yl)phenol]
The IC50 of the first is lower: 0.5 to 1 µM for the first, 1 to 3 µM for the second.

`CC1(C)CC(n2nnc3cc(-c4cc(F)c(-c5cn[nH]c5)cc4F)nnc32)CC(C)(C)N1` [Cpd 14, 6-[2,5-difluoro-4-(1H-pyrazol-4-yl)phenyl]-3-(2,2,6,6-tetramethylpiperidin-4-yl)-3H-[1,2,3]triazolo[4,5-c]pyridazine] and `CC1(C)CC(n2ccc3nc(-c4ccc(-c5cn[nH]c5)cc4O)cnc32)CC(C)(C)N1` [Cpd 10, 5-(1H-pyrazol-4-yl)-2-[5-(2,2,6,6-tetramethylpiperidin-4-yl)-5H-pyrrolo[2,3-b]pyrazin-2-yl]phenol] cannot be ordered by IC50: 0.1 to 0.5 µM for the first, at most 0.1 µM for the second.

`CC1(C)C=C(n2ccc3nc(-c4ccc(-c5cn[nH]c5)cc4O)cnc32)CC(C)(C)N1` [Cpd 8, 5-(1H-pyrazol-4-yl)-2-[5-(2,2,6,6-tetramethyl-1,2,3,6-tetrahydropyridin-4-yl)-5H-pyrrolo[2,3-b]pyrazin-2-yl]phenol] showed an IC50 of 1 to 3 µM.
